# Results from US11136370B2, “Compositions and methods for thrombin generation assay” (The Scripps Research Institute, priority 2016, dated 2021).
# Test system: thrombin generation (TG)
# Assay type: biochemical, human
# Description: TG in PRP or reconstituted PRP was evaluated as known to those skilled in the art. Native PRP was prepared from blood collected into final 12.9 mM trisodium citrate by centrifugation at 250 g for 10 min at 25° C. The platelet count was adjusted to 180×10^3/μl by dilution with homologous PPP obtained by centrifuging PRP for 10 min at 1,500 g. CTI was added at 30-50 μg/ml depending on calibrated potency as assessed by FXIIa inhibition. Reconstituted PRP was prepared with washed platelets prepared from normal PRP by adding ⅕th volume of acid citrate-dextrose (71 mM citric acid, 85 mM trisodium citrate, and 111 mM dextrose, pH 4.5) and 5 U/ml apyrase; following centrifugation at 1,500 g for 10 minutes at 25° C., the platelet pellet was resuspended into PPP lacking FVII (George King Bio-Medical) or FIX (Haematologic Technologies) to give a final platelet count of 180·103/μl PRP was mixed with varying concentrations of rTF and/or 20 pM FIXa in 96-well microtiter plates. The reaction was started by adding 18 mM CaCl2 with 360 μM of the thrombin substrate benzyloxycarbonyl-glycyl-glycyl-L-arginine coupled to the fluorogenic group 7-amido-4-methylcoumarin (Gly-Gly-Arg-AMC; Bachem Americas, Torrance, Calif.). Fluorescence was measured continuously at 37° C. for up to 40 min in a spectrofluorometer (355/460 nm excitation/emission). The rate of fluorescence intensity increase as a function of time (dF/dt) was calculated with Turbo Delphi 2006 (Borland Software Corporation, Austin, Tex.) and converted to thrombin-equivalent concentration (nM) using a calibration curve. The endogenous thrombin potential (ETP) of samples, i.e. total generated thrombin activity, was determined from the area under the TG curve. When specified, TG was measured with a discontinuous 2-stage assay with a detection limit of 5 pM. For this, TG was induced by 0.15 pM rTF and 18 mM CaCl2 in reconstituted FVII-deficient PRP including 30 μg/ml CTI with 400 pM WT FVIIa or iFVIIa without or with 20 pM FIXa. After incubation for up to 11 min at 37° C., reactions were terminated by adding 20 mM EDTA and generated thrombin was measured using the highly sensitive thrombin substrate H-D-CHA-Ala-Arg-AMC.2AcOH (Pefafluor TH, Pentapharm, Basel, Switzerland) at 50 μM concentration. In other experiments, TG was induced by TFiFVIIa-FXa-TFPI or TF-iFVIIa-FXa-NAPc2. These stable complexes were pre-formed by incubating 5 nM FXa, 10 nM TF, 10 nM iFVIIa and 40 nM TFPI or NAPc2 in the presence of 2.5 mM CaCl2 for 2 min at 37° C. Complexes were added into FVII-deficient PRP, followed by incubation for 8 min at 37° C.
# PRP was prepared from blood collected into trisodium citrate (final concentration 0.0129 M) by centrifugation for at 250 g for 10 min at 25° C.; the platelet count was adjusted at 180.103 per μl by diluting with homologous platelet-poor plasma (PPP) obtained by centrifuging PRP for an additional 10 min at 1,500 g. When indicated, CTI was added at 30 to 50 μg/ml depending on calibrated potency measured by FXIIa inhibition. Reconstituted PRP was prepared by adding normal washed platelets into PPP (without or with CTI) lacking FVII, FVIII (both from George King Bio-Medical, Overland Park, Kans.) or FIX (Haematologic Technologies). […] generation in PRP was measured as described by Hemker et al. 53 μl of PRP was mixed in 96-well microtiter plates with 15 μl of a solution containing rTF and/or one of the intrinsic coagulation pathway proteases—FXIIa, FXIa or FIXa—to achieve the indicated final concentrations. Antibodies or inhibitors were also added at this point at the concentration indicated for each specific case. The reaction was started by adding between 15 and 20 μl of 100 mM CaCl2 and 2 mM fluorogenic substrate, benzyloxycarbonyl-glycyl-glycyl-L-arginine-7-amido-4-methylcoumarin (Gly-Gly-Arg-AMC; Bachem Americas, Torrance, Calif.).
smiles,measurement,setting,value
O=C(NC[C@H]1CN(c2ccc(N3CCOCC3=O)cc2)C(=O)O1)c1ccc(Cl)s1 [Rivaroxaban],inhibition of TG in the presence of MoAb 12C7,low rivaroxaban concentrations,more pronounced inhibition
same,difference in dose response between rivaroxaban and apixaban,recalcified PRP containing CTI,~3 fold
same,effect on TF-induced thrombin generation,recalcified PRP containing CTI,inhibited
